The record followed here is patent publication US10745399B2 (priority 2015, dated 2020).

Bounds are passed on as bounds.

human recombinant ATM, sequence (Q13315 whole entry): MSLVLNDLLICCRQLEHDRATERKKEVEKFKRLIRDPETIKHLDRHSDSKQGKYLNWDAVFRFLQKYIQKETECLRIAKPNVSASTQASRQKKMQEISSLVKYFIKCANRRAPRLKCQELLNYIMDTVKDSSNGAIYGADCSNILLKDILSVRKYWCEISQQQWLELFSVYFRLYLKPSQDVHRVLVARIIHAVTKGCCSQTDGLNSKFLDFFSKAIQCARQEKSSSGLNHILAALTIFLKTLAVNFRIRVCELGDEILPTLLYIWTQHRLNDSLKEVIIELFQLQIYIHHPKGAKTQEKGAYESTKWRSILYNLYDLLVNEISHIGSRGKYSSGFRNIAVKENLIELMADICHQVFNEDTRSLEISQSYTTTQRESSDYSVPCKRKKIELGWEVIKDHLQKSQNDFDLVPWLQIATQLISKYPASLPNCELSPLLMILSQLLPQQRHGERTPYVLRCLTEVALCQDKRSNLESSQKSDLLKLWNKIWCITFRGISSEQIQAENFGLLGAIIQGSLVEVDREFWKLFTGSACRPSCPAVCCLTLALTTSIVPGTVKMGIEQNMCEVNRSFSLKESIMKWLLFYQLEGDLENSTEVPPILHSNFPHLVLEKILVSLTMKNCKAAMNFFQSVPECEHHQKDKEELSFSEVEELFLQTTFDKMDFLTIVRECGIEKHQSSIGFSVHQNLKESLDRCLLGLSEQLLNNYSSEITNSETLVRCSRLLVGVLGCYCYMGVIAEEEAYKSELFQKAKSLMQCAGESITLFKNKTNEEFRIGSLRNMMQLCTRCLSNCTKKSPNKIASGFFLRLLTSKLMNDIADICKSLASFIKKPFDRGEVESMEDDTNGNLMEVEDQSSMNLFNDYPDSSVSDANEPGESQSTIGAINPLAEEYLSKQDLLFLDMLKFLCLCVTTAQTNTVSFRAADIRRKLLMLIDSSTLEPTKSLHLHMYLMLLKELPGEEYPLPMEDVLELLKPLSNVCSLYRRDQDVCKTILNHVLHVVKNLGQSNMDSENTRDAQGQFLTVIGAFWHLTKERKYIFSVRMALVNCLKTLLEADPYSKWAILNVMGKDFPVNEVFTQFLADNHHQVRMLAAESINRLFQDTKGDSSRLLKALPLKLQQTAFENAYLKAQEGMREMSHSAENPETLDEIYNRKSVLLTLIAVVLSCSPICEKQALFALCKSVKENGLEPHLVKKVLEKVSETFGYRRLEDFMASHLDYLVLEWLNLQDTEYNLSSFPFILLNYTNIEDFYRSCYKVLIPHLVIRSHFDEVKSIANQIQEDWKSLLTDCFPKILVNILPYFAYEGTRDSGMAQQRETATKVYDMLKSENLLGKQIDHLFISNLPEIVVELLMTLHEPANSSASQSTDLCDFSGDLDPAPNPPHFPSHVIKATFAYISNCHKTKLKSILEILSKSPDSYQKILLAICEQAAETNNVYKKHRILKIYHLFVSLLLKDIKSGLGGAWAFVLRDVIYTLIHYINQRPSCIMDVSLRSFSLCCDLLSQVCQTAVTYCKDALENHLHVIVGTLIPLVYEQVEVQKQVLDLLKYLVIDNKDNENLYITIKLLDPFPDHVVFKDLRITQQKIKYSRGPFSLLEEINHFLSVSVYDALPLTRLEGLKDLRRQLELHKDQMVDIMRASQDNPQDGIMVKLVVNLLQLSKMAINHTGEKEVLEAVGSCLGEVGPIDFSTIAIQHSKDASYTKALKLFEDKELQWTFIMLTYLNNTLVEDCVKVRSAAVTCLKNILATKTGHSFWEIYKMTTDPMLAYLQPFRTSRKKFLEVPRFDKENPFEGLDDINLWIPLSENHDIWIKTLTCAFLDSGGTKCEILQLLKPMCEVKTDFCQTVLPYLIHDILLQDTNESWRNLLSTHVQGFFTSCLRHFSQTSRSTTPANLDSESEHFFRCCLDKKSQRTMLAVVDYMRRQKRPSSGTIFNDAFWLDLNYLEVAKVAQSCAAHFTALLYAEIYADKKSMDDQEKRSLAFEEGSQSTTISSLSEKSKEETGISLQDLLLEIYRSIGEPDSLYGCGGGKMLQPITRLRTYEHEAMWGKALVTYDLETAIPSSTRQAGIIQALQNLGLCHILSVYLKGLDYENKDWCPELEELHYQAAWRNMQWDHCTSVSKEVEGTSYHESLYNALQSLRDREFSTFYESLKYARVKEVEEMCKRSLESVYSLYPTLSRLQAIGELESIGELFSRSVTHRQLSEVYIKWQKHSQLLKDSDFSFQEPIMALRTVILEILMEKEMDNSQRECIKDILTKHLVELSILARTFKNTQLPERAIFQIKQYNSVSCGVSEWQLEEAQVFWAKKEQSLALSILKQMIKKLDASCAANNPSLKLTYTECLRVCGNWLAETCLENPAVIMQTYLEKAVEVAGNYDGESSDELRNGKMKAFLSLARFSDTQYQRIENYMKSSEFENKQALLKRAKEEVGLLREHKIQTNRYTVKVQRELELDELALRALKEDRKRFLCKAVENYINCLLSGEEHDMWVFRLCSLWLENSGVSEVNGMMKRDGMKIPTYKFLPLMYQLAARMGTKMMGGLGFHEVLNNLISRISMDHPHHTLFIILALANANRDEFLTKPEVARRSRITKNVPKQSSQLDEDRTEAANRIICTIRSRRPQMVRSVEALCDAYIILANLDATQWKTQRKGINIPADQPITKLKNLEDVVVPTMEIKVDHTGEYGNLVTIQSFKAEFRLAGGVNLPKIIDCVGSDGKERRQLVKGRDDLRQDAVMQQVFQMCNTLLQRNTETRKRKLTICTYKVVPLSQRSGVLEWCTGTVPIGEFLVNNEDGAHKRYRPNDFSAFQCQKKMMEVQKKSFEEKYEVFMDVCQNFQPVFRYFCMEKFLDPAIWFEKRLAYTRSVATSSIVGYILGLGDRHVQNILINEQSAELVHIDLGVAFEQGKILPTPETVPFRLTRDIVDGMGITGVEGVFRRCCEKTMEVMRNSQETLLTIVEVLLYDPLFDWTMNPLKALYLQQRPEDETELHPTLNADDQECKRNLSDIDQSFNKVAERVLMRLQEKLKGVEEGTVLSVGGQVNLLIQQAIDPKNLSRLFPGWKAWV
PI3K p110β/p85α (human), sequence (P42338 whole entry, the tested form may be a part): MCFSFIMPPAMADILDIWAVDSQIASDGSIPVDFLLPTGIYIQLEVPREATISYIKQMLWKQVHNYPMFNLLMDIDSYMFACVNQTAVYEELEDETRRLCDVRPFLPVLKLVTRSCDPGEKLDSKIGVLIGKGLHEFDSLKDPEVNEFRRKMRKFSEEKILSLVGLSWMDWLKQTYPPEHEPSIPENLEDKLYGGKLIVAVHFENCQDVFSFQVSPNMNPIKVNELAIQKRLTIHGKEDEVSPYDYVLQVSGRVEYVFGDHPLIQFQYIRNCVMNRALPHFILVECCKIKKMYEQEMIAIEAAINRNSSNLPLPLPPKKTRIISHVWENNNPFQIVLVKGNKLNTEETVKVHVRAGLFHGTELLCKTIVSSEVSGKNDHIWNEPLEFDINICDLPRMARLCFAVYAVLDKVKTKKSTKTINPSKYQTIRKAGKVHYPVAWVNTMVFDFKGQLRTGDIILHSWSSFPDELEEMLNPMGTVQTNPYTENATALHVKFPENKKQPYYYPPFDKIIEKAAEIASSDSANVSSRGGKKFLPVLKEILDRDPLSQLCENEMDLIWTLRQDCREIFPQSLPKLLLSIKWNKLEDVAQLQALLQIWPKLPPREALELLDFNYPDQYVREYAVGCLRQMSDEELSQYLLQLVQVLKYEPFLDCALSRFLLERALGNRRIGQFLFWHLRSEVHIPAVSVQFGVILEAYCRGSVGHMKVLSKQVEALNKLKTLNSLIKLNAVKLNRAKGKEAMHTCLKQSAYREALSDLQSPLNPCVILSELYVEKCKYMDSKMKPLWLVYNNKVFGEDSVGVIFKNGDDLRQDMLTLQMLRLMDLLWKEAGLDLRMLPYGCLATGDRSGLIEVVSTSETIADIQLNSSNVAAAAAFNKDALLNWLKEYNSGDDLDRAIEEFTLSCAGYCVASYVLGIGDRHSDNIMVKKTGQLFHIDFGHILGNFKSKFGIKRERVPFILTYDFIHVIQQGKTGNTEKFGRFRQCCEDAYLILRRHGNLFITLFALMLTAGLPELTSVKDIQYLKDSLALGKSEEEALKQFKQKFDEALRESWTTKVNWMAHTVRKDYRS
PI3K p110β/p85α (human), sequence (P27986 whole entry partner, the tested form may be a part): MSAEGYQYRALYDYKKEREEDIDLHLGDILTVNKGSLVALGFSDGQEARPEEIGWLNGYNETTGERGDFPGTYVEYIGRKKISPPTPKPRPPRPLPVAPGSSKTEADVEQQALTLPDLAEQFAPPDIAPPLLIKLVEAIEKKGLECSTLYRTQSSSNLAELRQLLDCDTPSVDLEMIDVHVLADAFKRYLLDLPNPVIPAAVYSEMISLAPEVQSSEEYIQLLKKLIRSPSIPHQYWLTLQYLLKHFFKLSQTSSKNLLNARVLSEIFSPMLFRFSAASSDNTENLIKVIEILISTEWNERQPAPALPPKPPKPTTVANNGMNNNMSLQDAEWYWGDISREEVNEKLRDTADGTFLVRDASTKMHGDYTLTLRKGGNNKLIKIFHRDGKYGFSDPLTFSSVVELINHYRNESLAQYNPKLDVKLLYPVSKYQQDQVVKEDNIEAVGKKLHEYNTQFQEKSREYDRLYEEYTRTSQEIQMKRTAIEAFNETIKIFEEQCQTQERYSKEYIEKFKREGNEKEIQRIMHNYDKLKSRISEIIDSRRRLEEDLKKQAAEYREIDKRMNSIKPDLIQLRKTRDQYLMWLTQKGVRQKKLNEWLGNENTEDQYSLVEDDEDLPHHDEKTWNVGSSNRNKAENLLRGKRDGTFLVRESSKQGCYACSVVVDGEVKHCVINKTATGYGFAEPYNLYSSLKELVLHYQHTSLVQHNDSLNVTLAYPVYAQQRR

One experiment concerns the target human recombinant ATM (Homo sapiens (Human), UniProt Q13315). The experiment is described as follows: ATM kinase assay (IC50 ATM), TR-FRET. As to conditions: 10 μM ATP, p53 substrate. The class given is biochemical. The protocol:
ATM Kinase Assay—Determination of ATM Inhibition (IC50 ATM):
The IC50 value was determined with the aid of a biochemical ATM kinase assay. The assay consists of two steps: the enzymatic reaction and the detection step. Firstly, ATM (ataxia telangiectasia mutated) protein and the test substance are incubated at different concentrations with addition of substrate protein p53 and ATP. ATM mediates the phosphorylation of p53 at several positions, including at amino acid S15. The amount of phosphorylated p53 is determined with the aid of specific antibodies and the TR-FRET technique. The enzymatic ATM assay is carried out as TR-FRET (HTRF™, Cisbio Bioassays) based 384-well assay. In the first step, purified human recombinant ATM (human ATM, full length, GenBank ID NM_000051, expressed in a mammal cell line) is incubated in assay buffer for 15 minutes with the ATM inhibitor in various concentrations and without test substance as negative or neutral control. The assay buffer comprises 25 mM HEPES pH 8.0, 10 mM Mg(CH3COO)2, 1 mM MnCl2, 0.1% BSA and 0.01% Brij® 35, 5 mM dithiothreitol (DTT). […] In the second step, purified human recombinant cmyc-labelled p53 (human p53, full length, GenBank ID BC003596, expressed in Sf21 insect cells) and ATP are added, and the reaction mixture is incubated at 22° C. for 30-35 minutes. The pharmacologically relevant assay volume is 5 μl. […] The enzymatic reaction is stopped by addition of EDTA. […] After incubation, usually for 2 hours (between 1.5 and 15 h), for signal development, the plates are analysed in a plate reader (EnVision, PerkinElmer) using TRF mode (and with laser excitation). […] The measurement data were processed by means of Genedata Screener software. IC50 determinations are carried out, in particular, by fitting a dose/action curve to the data points by means of nonlinear regression analysis.
(TR-FRET usually uses a lanthanide donor and a delayed reading to cut background.)
Turning to `COc1cc2ncc3c(c2cc1-c1cnn(C)c1)n(-c1ncc(F)cc1F)c(=O)n3C` [Compound Example 1, 1-(3,5-Difluoropyridin-2-yl)-7-methoxy-3-methyl-8-(1-methyl-1H-pyrazol-4-yl)-1,3-dihydroimidazo[4,5-c] quinolin-2-one], the IC50 (commonly the point on the concentration scale where inhibition reaches its midpoint) was under 1 nM.

Consider `COc1cc2ncc3c(c2cc1-c1cnn(C)n1)n(-c1c(C)cncc1F)c(=O)n3C` [compound 103, 1-(3-Fluoro-5-methylpyridin-4-yl)-7-methoxy-3-methyl-8-(2-methyl-2H-1,2,3-triazol-4-yl)-1,3-dihydroimidazo-[4,5-c]quinolin-2-one], for which the 50% inhibitory concentration (IC50) was under 50 nM.

Turning to `COc1cc2ncc3c(c2cc1-c1cnn(C)c1)n(-c1ncc(OCCO)cc1F)c(=O)n3C` [compound 67, 1-[3-Fluoro-5-(2-hydroxy-ethoxy)-2-pyridyl]-7-methoxy-3-methyl-8-(1-methylpyrazol-4-yl)imidazo-[4,5-c]quinolin-2-one], the IC50 was under 1 nM.

Another experiment has as its system CHK2 phosphorylation (phospho-Thr68) in HCT116 cells. The experiment is described as follows: Cellular pCHK2 assay, bleomycin-induced phosphorylation of CHK2 (phospho-Thr68), immunofluorescence high content. As to conditions: Homo sapiens, HCT-116; HCT116 cells, 10 μM bleomycin, 4 h; read-out: IC50 (pCHK2). The class given is cell-based. The text has this: For the identification of substances which inhibit the phosphorylation of the protein kinase CHK2 at the amino acid threonine 68, an immunofluorescence-based “high content” analysis assay was used in HCT116 cells.
In vitro cell-based immunofluorescence assay for the identification of inhibitors of bleomycin-induced phosphorylation of CHK2 (phospho-Thr68) in the human colon carcinoma cell line HCT116:
HCT116 cells are sown out in a defined cell density in 384-well plates in culture medium (DMEM high glucose, 2 mM GlutaMax, 1 mM Na pyruvate, 10% FCS) and incubated overnight at 37° C. and 10% of CO2. On the following day, the test substances are added in a defined concentration range (1 nM to 30 μM) in combination with 10 μM bleomycin, where the concentration of the solvent DMSO is kept constant at 0.5%. After incubation for four hours at 37° C. and 10% of CO2, the cells are fixed (5 min, 4% formaldehyde in PBS), permeabilised (10 min, 0.2% Triton X-100 in PBS) and, after blocking of nonspecific binding sites (10% goat serum, 1% BSA in PBS), incubated overnight at 4° C. with a specific anti-pCHK2 antibody (cell signalling #2661). pCHK2 (Thr68) is determined using an Alexa488-labelled secondary anti-rabbit IgG antibody. Parallel staining of DNA with propidium iodide enables determination of the cell count. The pCHK2 signal is detected using a high-content imager (Molecular Devices IMX Ultra) and automatic image analysis using the MetaXpress software belonging to the instrument. The number of cell nuclei which have a pCHK2 signal above a defined background is determined.
As to `COc1cc2ncc3c(c2cc1-c1cnn(C)n1)n(-c1c(C)cncc1F)c(=O)n3C` [compound 103, 1-(3-Fluoro-5-methylpyridin-4-yl)-7-methoxy-3-methyl-8-(2-methyl-2H-1,2,3-triazol-4-yl)-1,3-dihydroimidazo-[4,5-c]quinolin-2-one], the IC50 was 200 to 1000 nM.

As for `COc1ccc(-c2cc3c(cc2OC)ncc2c3n(-c3c(F)cncc3OC)c(=O)n2C)cn1` [compound 137, 1-(3-Fluoro-5-methoxy-pyridin-4-yl)-7-methoxy-8-(6-methoxypyridin-3-yl)-3-methyl-1,3-dihydroimidazo-[4,5-c]quinolin-2-one], the IC50 is 200 to 1000 nM.

Another experiment addresses mTOR (human) (Homo sapiens (Human), UniProt P42345). The experiment is described as follows: mTOR (human) radiometric kinase assay. The class given is biochemical. As to conditions: IC50 (ATM) at least 2000 times higher compared with IC50 (mTOR). Here is the method:
mTOR (human) was incubated with 50 mM HEPES pH 7.5, 1 mM EGTA, 0.01% Tween 20, 2 mg/ml of the substrate, 3 mM MnCl2 and [γ-^33P-ATP] (specific activity approximately 500 cpm/pmol, concentration as necessary). The reaction was initiated by addition of MgATP solution. After incubation at room temperature for 40 minutes, the reaction was stopped by addition of 3% phosphoric acid. 10 μl of the reaction solution were then transferred dropwise onto a P30 filtermat and washed three times for 5 min in 75 mM phosphoric acid and once in methanol, dried and evaluated by means of liquid scintillation counting.
For the molecule `CCc1cncc(F)c1-n1c(=O)n(C)c2cnc3cc(OC)c(-c4cn(C)nn4)cc3c21` [compound 126, 1-(3-Ethyl-5-fluoropyridin-4-yl)-7-methoxy-3-methyl-8-(1-methyl-1H-1,2,3-triazol-4-yl)-1,3-dihydroimidazo-[4,5-c]quinolin-2-one], the “ratio IC50 (ATM):IC50(mTOR), selectivity with respect to mTOR” value (“ratio IC50 (ATM):IC50(mTOR), selectivity” below) is recorded as “at least 2000 times”.

For the molecule `COc1cc2ncc3c(c2cc1-c1cnn(C)c1)n(-c1ncc(OC(F)F)cc1F)c(=O)n3C` [compound 114, 1-(5-Difluoromethoxy-3-fluoropyridin-2-yl)-7-methoxy-3-methyl-8-(1-methyl-1H-pyrazol-4-yl)-1,3-dihydroimidazo[4,5-c]-quinolin-2-one], the “ratio IC50 (ATM):IC50(mTOR), selectivity” value is reported as “at least 2000 times”.

For `COc1ccc(-c2cc3c(cc2OC)ncc2c3n(-c3cn(C)nc3F)c(=O)n2C)cn1` [compound 159, 1-(3-Fluoro-1-methyl-1H-pyrazol-4-yl)-7-methoxy-8-(6-methoxypyridin-3-yl)-3-methyl-1,3-dihydroimidazo-[4,5-c]quinolin-2-one], the “ratio IC50 (ATM):IC50(mTOR), selectivity” value was “at least 2000 times”.

In the case of `COc1cc2ncc3c(c2cc1-c1cc[nH]n1)n(-c1cn(C)nc1C)c(=O)n3C` [compound 121, 1-(1,3-Dimethyl-1H-pyrazol-4-yl)-7-methoxy-3-methyl-8-(1H-pyrazol-3-yl)-1,3-dihydroimidazo[4,5-c]-quinolin-2-one], the “ratio IC50 (ATM):IC50(mTOR), selectivity” value is reported as “at least 2000 times”.

Turning to `COc1cc2ncc3c(c2cc1-c1cnn(C)c1)n(-c1ncc(OCS(C)(=O)=O)cc1F)c(=O)n3C` [compound 201, 1-(3-Fluoro-5-methyl-sulfonylmethoxypyridin-2-yl)-7-methoxy-3-methyl-8-(1-methyl-1H-pyrazol-4-yl)-1,3-dihydroimidazo[4,5-c]-quinolin-2-one], the “ratio IC50 (ATM):IC50(mTOR), selectivity” value is listed as “at least 2000 times”.

Consider `COc1cc2ncc3c(c2cc1-c1ccc2nc(C)[nH]c2c1)n(-c1c(F)cncc1OC)c(=O)n3C` [compound 136, 1-(3-Fluoro-5-methoxy-pyridin-4-yl)-7-methoxy-3-methyl-8-(2-methyl-3H-benzoimidazol-5-yl)-1,3-dihydroimidazo[4,5-c]-quinolin-2-one], for which the “ratio IC50 (ATM):IC50(mTOR), selectivity” value is “at least 2000 times”.

With `COc1cc2ncc3c(c2cc1-c1cnn(C)c1)n(-c1cc2[nH]ccc2cn1)c(=O)n3C` [compound 120, 7-Methoxy-3-methyl-8-(1-methyl-1H-pyrazol-4-yl)-1-(1H-pyrrolo[3,2-c]pyridin-6-yl)-1,3-dihydroimidazo-[4,5-c]quinolin-2-one], the “ratio IC50 (ATM):IC50(mTOR), selectivity” value is on record as “at least 2000 times”.

Take `CCc1cncc(F)c1-n1c(=O)n(C)c2cnc3cc(OC)c(-c4cn[nH]n4)cc3c21` [compound 125, 1-(3-Ethyl-5-fluoropyridin-4-yl)-7-methoxy-3-methyl-8-(2H-1,2,3-triazol-4-yl)-1,3-dihydroimidazo[4,5-c] quinolin-2-one]: the “ratio IC50 (ATM):IC50(mTOR), selectivity” value is recorded as “at least 2000 times”.

Turning to `COc1cc2ncc3c(c2cc1-c1cnn(C)c1)n(-c1cn(C)nc1F)c(=O)n3C` [compound 141, 1-(3-Fluoro-1-methyl-1H-pyrazol-4-yl)-7-methoxy-3-methyl-8-(1-methyl-1H-pyrazol-4-yl)-1,3-dihydro-imidazo[4,5-c]quinolin-2-one], the “ratio IC50 (ATM):IC50(mTOR), selectivity” value is recorded as “at least 2000 times”.

For the molecule `COc1cnc(-n2c(=O)n(C)c3cnc4cc(OC)c(-c5c[nH]nc5C)cc4c32)c(F)c1` [compound 122, 1-(3-Fluoro-5-methoxy-pyridin-2-yl)-7-methoxy-3-methyl-8-(3-methyl-1H-pyrazol-4-yl)-1,3-dihydro-imidazo[4,5-c]quinolin-2-one], the “ratio IC50 (ATM):IC50(mTOR), selectivity” value is recorded as “at least 2000 times”.

In the case of `CCc1cnccc1-n1c(=O)n(C)c2cnc3cc(OC)c(-c4cnn(CC)c4)cc3c21` [compound 157, 8-(1-Ethyl-1H-pyrazol-4-yl)-1-(3-ethylpyridin-4-yl)-7-methoxy-3-methyl-1,3-dihydroimidazo[4,5-c] quinolin-2-one], the “ratio IC50 (ATM):IC50(mTOR), selectivity” value was “at least 2000 times”.

Turning to `COc1cc2ncc3c(c2cc1-c1cn(C)nc1C)n(-c1c(F)cncc1OC(F)F)c(=O)n3C` [compound 147, 1-(3-Difluoromethoxy-5-fluoropyridin-4-yl)-8-(1,3-dimethyl-1H-pyrazol-4-yl)-7-methoxy-3-methyl-1,3-dihydroimidazo[4,5-c]-quinolin-2-one], the “ratio IC50 (ATM):IC50(mTOR), selectivity” value was “at least 2000 times”.

A further experiment has as its target PI3K p110β/p85α (human) (Homo sapiens (Human), UniProt P42338). The experiment is described as follows: PI3K p110β/p85α (human), non-radioactive assay (HTRF). The class given is biochemical. As to conditions: IC50 (ATM) at least 2000 times higher compared with IC50 (PI3Kbeta). The protocol: PI3K p110β/p85a (Human), Non-Radioactive Assay
PI3K p110β/p85α (human) was incubated in an assay buffer comprising 10 μM phosphatidylinositol 4,5-bisphosphate and MgATP (concentration as necessary). The reaction was initiated by addition of MgATP solution. After an incubation time of 30 min at room temperature, the reaction was stopped by addition of a solution consisting of EDTA and biotinylated phosphatidylinositol 3,4,5-trisphosphate. Finally, the detection buffer, consisting of a europium-labelled anti-GST monoclonal antibody, a GST-labelled GRP1 PH domain and streptavidin allophycocyanin, was added. The plate was read out via homogeneous time-resolved fluorescence (HTRF) and the corresponding signals were evaluated via the formula HTRF=10000×(Em665 nm/Em620 nm).
For `COc1ccc(-c2cc3c(cc2OC)ncc2c3n(-c3c(F)cncc3OC)c(=O)n2C)cn1` [compound 137, 1-(3-Fluoro-5-methoxy-pyridin-4-yl)-7-methoxy-8-(6-methoxypyridin-3-yl)-3-methyl-1,3-dihydroimidazo-[4,5-c]quinolin-2-one], the “ratio IC50 (ATM):IC50(PI3Kbeta), selectivity with respect to PI3Kbeta” value is “at least 2000 times”.
